Experiments:
SiHa = test: Anticancer activity against human SiHa cells after 48 hrs by MTT assay; format: functional, cell-based
HepG2 = test: Anticancer activity against human HepG2 cells after 48 hrs by MTT assay; format: functional, cell-based; conditions: HepG2, 48 h
A549 = test: Anticancer activity against human A549 cells after 48 hrs by MTT assay; format: functional, cell-based; conditions: A549, 48 h
SW480 = test: Anticancer activity against human SW480 cells after 48 hrs by MTT assay; format: functional, cell-based; conditions: SW480, 48 h
HeLa = test: Anticancer activity against human HeLa cells after 48 hrs by MTT assay; format: functional, cell-based
HEK293 = test: Cytotoxicity against human HEK293 cells after 48 hrs by MTT assay; format: cell-based; conditions: HEK293, 48 h

SMILES | IC50 (SiHa) [µM] | IC50 (HepG2) [µM] | IC50 (A549) [µM] | IC50 (SW480) [µM] | IC50 (HeLa) [µM] | IC50 (HEK293) [µM]
CC(=O)O[C@H]1[C@@H](n2nnc3ccccc32)C[C@H]2[C@@H]3CC[C@H]4C[C@@H](N5CCOCC5)CC[C@]4(C)[C@H]3CC[C@@]21C | > 50 | > 50 | 12.2 | > 50 | 19.8 | –
CC(=O)O[C@H]1[C@@H](n2cnc3ccccc32)C[C@H]2[C@@H]3CC[C@H]4C[C@@H](N(C)c5ccccc5)CC[C@]4(C)[C@H]3CC[C@@]21C | 6.67 | > 50 | 28.4 | 9.22 | 4.51 | > 80
CC(=O)O[C@H]1[C@@H](n2ccnn2)C[C@H]2[C@@H]3CC[C@H]4C[C@@H](N5CCCC5)CC[C@]4(C)[C@H]3CC[C@@]21C | > 50 | > 50 | > 50 | > 50 | > 50 | –
CC(=O)O[C@H]1[C@@H](n2ccnn2)C[C@H]2[C@@H]3CC[C@H]4C[C@@H](N5CCCCC5)CC[C@]4(C)[C@H]3CC[C@@]21C | > 50 | > 50 | > 50 | > 50 | > 50 | –
CC(=O)O[C@H]1[C@@H](n2cnc3ccccc32)C[C@H]2[C@@H]3CC[C@H]4C[C@@H](N5CCN(C)CC5)CC[C@]4(C)[C@H]3CC[C@@]21C | 14.9 | 11.7 | 22.4 | > 50 | > 50 | –
CC(=O)O[C@H]1[C@@H](n2ccnn2)C[C@H]2[C@@H]3CC[C@H]4C[C@@H](N(C)Cc5ccccc5)CC[C@]4(C)[C@H]3CC[C@@]21C | 15.2 | 8.43 | 11.4 | > 50 | > 50 | –
CC(=O)O[C@H]1[C@@H](n2nnc3ccccc32)C[C@H]2[C@@H]3CC[C@H]4C[C@@H](N5CCCC5)CC[C@]4(C)[C@H]3CC[C@@]21C | > 50 | > 50 | > 50 | > 50 | > 50 | –
CC(=O)O[C@H]1[C@@H](n2nnc3ccccc32)C[C@H]2[C@@H]3CC[C@H]4C[C@@H](N5CCN(C)CC5)CC[C@]4(C)[C@H]3CC[C@@]21C | 22 | 31.7 | 8.99 | 18.9 | > 50 | –
CC(=O)O[C@H]1[C@@H](n2cncn2)C[C@H]2[C@@H]3CC[C@H]4C[C@@H](N(C)c5ccccc5)CC[C@]4(C)[C@H]3CC[C@@]21C | 37.1 | 21.9 | 12.3 | > 50 | 19.8 | –
CC(=O)O[C@H]1[C@@H](n2nnc3ccccc32)C[C@H]2[C@@H]3CC[C@H]4C[C@@H](N(C)c5ccccc5)CC[C@]4(C)[C@H]3CC[C@@]21C | 9.83 | 6.36 | 5.12 | 18.6 | 10.4 | > 80
CC(=O)O[C@H]1[C@@H](n2cncn2)C[C@H]2[C@@H]3CC[C@H]4C[C@@H](N5CCCCC5)CC[C@]4(C)[C@H]3CC[C@@]21C | > 50 | > 50 | > 50 | > 50 | > 50 | –
CC(=O)O[C@H]1[C@@H](n2ccnn2)C[C@H]2[C@@H]3CC[C@H]4C[C@@H](N(C)c5ccccc5)CC[C@]4(C)[C@H]3CC[C@@]21C | 11.7 | 9.35 | 18.9 | > 50 | 72.1 | –
CCN(CC)[C@H]1CC[C@@]2(C)[C@@H](CC[C@@H]3[C@@H]2CC[C@@]2(C)[C@H]3C[C@H](n3cncn3)[C@@H]2OC(C)=O)C1 | > 50 | > 50 | > 50 | > 50 | > 50 | –
CC(=O)O[C@H]1[C@@H](n2ccnn2)C[C@H]2[C@@H]3CC[C@H]4C[C@@H](N5CCOCC5)CC[C@]4(C)[C@H]3CC[C@@]21C | 47.8 | > 50 | 40.3 | 31.8 | > 50 | –
CC(=O)O[C@H]1[C@@H](n2cnc3ccccc32)C[C@H]2[C@@H]3CC[C@H]4C[C@@H](N(C)Cc5ccccc5)CC[C@]4(C)[C@H]3CC[C@@]21C | 11.9 | 5.14 | 4.22 | 15.8 | 6.04 | > 80
CC(=O)O[C@H]1[C@@H](n2cnc3ccccc32)C[C@H]2[C@@H]3CC[C@H]4C[C@@H](N5CCCCC5)CC[C@]4(C)[C@H]3CC[C@@]21C | 18.7 | 29.6 | > 50 | > 50 | > 50 | –
CC(=O)O[C@H]1[C@@H](n2nnc3ccccc32)C[C@H]2[C@@H]3CC[C@H]4C[C@@H](N(C)Cc5ccccc5)CC[C@]4(C)[C@H]3CC[C@@]21C | 26.2 | 5.54 | 7.72 | > 50 | 11.3 | 48.7
CC(=O)O[C@H]1[C@@H](n2cnc3ccccc32)C[C@H]2[C@@H]3CC[C@H]4C[C@@H](N5CCOCC5)CC[C@]4(C)[C@H]3CC[C@@]21C | 12.3 | > 50 | 16.1 | > 50 | > 50 | –
CC(=O)O[C@H]1[C@@H](n2cncn2)C[C@H]2[C@@H]3CC[C@H]4C[C@@H](N5CCCC5)CC[C@]4(C)[C@H]3CC[C@@]21C | > 50 | > 50 | > 50 | > 50 | > 50 | –
COc1cccc2c1C(=O)c1c(O)c3c(c(O)c1C2=O)C[C@@](O)(C(=O)CO)C[C@@H]3O[C@H]1C[C@H](N)[C@H](O)[C@H](C)O1 [DOXORUBICIN] | 0.45 | – | – | 0.06 | 0.23 | –
CC(=O)O[C@H]1[C@@H](n2cncn2)C[C@H]2[C@@H]3CC[C@H]4C[C@@H](N5CCOCC5)CC[C@]4(C)[C@H]3CC[C@@]21C | > 50 | 19.5 | > 50 | > 50 | 22.3 | –
CCN(CC)[C@H]1CC[C@@]2(C)[C@@H](CC[C@@H]3[C@@H]2CC[C@@]2(C)[C@H]3C[C@H](n3ccnn3)[C@@H]2OC(C)=O)C1 | > 50 | > 50 | > 50 | > 50 | > 50 | –
CC(=O)O[C@H]1[C@@H](n2nnc3ccccc32)C[C@H]2[C@@H]3CC[C@H]4C[C@@H](N5CCCCC5)CC[C@]4(C)[C@H]3CC[C@@]21C | > 50 | > 50 | 22.7 | > 50 | 29.6 | –
CC(=O)O[C@H]1[C@@H](n2cncn2)C[C@H]2[C@@H]3CC[C@H]4C[C@@H](N5CCN(C)CC5)CC[C@]4(C)[C@H]3CC[C@@]21C | > 50 | 23.5 | 39.7 | > 50 | > 50 | –
CC(=O)O[C@H]1[C@@H](n2cnc3ccccc32)C[C@H]2[C@@H]3CC[C@H]4C[C@@H](N5CCCC5)CC[C@]4(C)[C@H]3CC[C@@]21C | 37.1 | > 50 | 39.6 | > 50 | > 50 | –
CCN(CC)[C@H]1CC[C@@]2(C)[C@@H](CC[C@@H]3[C@@H]2CC[C@@]2(C)[C@H]3C[C@H](n3nnc4ccccc43)[C@@H]2OC(C)=O)C1 | 37.2 | > 50 | > 50 | > 50 | > 50 | –
CC(=O)O[C@H]1[C@@H](n2cncn2)C[C@H]2[C@@H]3CC[C@H]4C[C@@H](N(C)Cc5ccccc5)CC[C@]4(C)[C@H]3CC[C@@]21C | 22.4 | 10.6 | > 50 | > 50 | 18.7 | –
CCN(CC)[C@H]1CC[C@@]2(C)[C@@H](CC[C@@H]3[C@@H]2CC[C@@]2(C)[C@H]3C[C@H](n3cnc4ccccc43)[C@@H]2OC(C)=O)C1 | 29.8 | 22.1 | > 50 | > 50 | > 50 | –
CC(=O)O[C@H]1[C@@H](n2ccnn2)C[C@H]2[C@@H]3CC[C@H]4C[C@@H](N5CCN(C)CC5)CC[C@]4(C)[C@H]3CC[C@@]21C | > 50 | > 50 | > 50 | > 50 | 38.1 | –

Source: ChEMBL document CHEMBL1817616, “Synthesis, characterization and biological evaluation of some 16β-azolyl-3β-amino-5α-androstane derivatives as potential anticancer agents” (Eur J Med Chem, 2011)
